Target: T1, recombinant Vps34 (Homo sapiens, UniProt Q8NEB9)
T1 construct: purchased Invitrogen PV5126
Test: Phosphorylation of phosphatidylinositol (PI) by Vps34 in vitro, ADP detected by TR-FRET (HTRF Transcreener ADP)
Assay type: biochemical
Conditions: 10 μM ATP, 55 μg/ml PI, approximately 3 nM Vps34, 1 hour at ambient temperature; absolute IC50, mean of two independent experiments; read-out: IC50 activity range

T1 sequence (Q8NEB9 whole entry): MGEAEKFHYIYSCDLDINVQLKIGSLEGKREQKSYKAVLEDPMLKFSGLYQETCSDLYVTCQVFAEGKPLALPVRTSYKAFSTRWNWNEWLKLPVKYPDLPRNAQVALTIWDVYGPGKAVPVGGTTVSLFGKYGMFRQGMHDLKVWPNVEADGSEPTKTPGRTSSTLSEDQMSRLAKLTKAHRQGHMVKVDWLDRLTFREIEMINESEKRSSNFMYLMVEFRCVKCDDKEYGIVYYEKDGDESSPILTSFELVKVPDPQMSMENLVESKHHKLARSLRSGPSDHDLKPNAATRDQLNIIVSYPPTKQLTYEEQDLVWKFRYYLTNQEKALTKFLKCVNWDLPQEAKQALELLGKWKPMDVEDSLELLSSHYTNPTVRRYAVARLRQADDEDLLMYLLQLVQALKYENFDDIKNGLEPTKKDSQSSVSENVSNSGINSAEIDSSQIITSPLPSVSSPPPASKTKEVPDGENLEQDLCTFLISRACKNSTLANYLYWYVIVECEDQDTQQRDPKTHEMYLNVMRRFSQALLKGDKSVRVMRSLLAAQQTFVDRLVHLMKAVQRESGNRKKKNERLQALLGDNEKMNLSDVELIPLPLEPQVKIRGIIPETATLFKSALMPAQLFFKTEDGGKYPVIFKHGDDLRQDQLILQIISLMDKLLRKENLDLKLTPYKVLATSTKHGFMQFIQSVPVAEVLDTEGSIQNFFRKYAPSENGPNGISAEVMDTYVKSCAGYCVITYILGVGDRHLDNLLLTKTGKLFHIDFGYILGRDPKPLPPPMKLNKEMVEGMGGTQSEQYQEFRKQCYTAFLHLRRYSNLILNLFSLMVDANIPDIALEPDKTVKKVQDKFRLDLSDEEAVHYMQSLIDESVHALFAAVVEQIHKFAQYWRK

SMILES | IC50 [nM]
C[C@@H]1COCCN1c1cc(C(=O)CN2c3nc(N4CCOC[C@H]4C)cc(=O)n3CC[C@H]2C(F)(F)F)ccn1 [Example 303, (S)-2-((R)-3-Methyl-morpholin-4-yl)-9-{2-[2-((R)-3-methyl-morpholin-4-yl)pyridin-4-yl]-2-oxoethyl}-8-trifluoromethyl-6,7,8,9-tetrahydropyrimido[1,2-a]pyrimidin-4-one] | < 10
C[C@@H]1COCCN1c1cc(=O)n2c(n1)N(CC(=O)C1(C)CCOCC1)[C@H](C(F)(F)F)CC2 [Example 310, (S)-2-((R)-3-Methyl-morpholin-4-yl)-9-[2-(4-methyl-tetrahydro-pyran-4-yl)-2-oxo-ethyl]-8-trifluoromethyl-6,7,8,9-tetrahydro-pyrimido[1,2-a]-pyrimidin-4-one] | < 10
Cc1cc(C(=O)CN2c3nc(N4CCOC[C@H]4C)cc(=O)n3CC[C@H]2C(F)(F)F)no1 [Example 311, (S)-9-[2-(5-Methyl-isoxazol-3-yl)-2-oxo-ethyl]-2-((R)-3-methyl-morpholin-4-yl)-8-trifluoromethyl-6,7,8,9-tetrahydro-pyrimido[1,2-a]-pyrimidin-4-one] | < 10
C[C@@H]1COC[C@@H](C)N1c1cc(=O)n2c(n1)N(Cc1cnc(Cl)s1)[C@H](C(F)(F)F)CC2 [Example 312, (S)-9-(2-Chloro-thiazol-5-ylmethyl)-2-((3R,5R)-3,5-dimethyl-morpholin-4-yl)-8-trifluoromethyl-6,7,8,9-tetrahydro-pyrimido[1,2-a]-pyrimidin-4-one] | 10 to 100
C[C@@H]1COC[C@@H](C)N1c1cc(=O)n2c(n1)N(Cc1ccon1)[C@H](C(F)(F)F)CC2 [Example 313, (S)-2-((3R,5R)-3,5-Dimethylmorpholin-4-yl)-9-isoxazol-3-yl-methyl-8-trifluoromethyl-6,7,8,9-tetrahydropyrimido-[1,2-a]pyrimidin-4-one] | < 10
C[C@@H]1COCCN1c1nc2n(c(=O)c1F)CC[C@@H](C(F)(F)F)N2CC(=O)N1CCCO1 [Example 314, (S)-3-Fluoro-9-(2-isoxazolidin-2-yl-2-oxoethyl)-2-((R)-3-methylmorpholin-4-yl)-8-trifluoromethyl-6,7,8,9-tetrahydro-pyrimido[1,2-a]-pyrimidin-4-one] | < 10
C[C@@H]1COCCN1c1cc(=O)n2c(n1)N(CCO)[C@H](C(F)(F)F)CC2 [Example 315, (S)-9-(2-Hydroxy-ethyl)-2-((R)-3-methyl-morpholin-4-yl)-8-trifluoromethyl-6,7,8,9-tetrahydro-pyrimido[1,2-a]-pyrimidin-4-one] | < 10
C[C@@H]1COCCN1c1nc2n(c(=O)c1F)CC[C@@H](C(F)(F)F)N2CC(=O)N1CCCCO1 [Example 317, (S)-3-Fluoro-2-((R)-3-methylmorpholin-4-yl)-9-(2-[1,2]oxazinan-2-yl-2-oxoethyl)-8-trifluoromethyl-6,7,8,9-tetrahydropyrimido-[1,2-a]pyrimidin-4-one] | < 10
C[C@@H]1COCCN1c1cc(=O)n2c(n1)N(CC(=O)N1CCCCO1)[C@H](C(F)(F)F)CC2 [Example 318, (S)-2-((R)-3-Methyl-morpholin-4-yl)-9-(2-[1,2]oxazinan-2-yl-2-oxoethyl)-8-trifluoromethyl-6,7,8,9-tetrahydropyrimido-[1,2-a]pyrimidin-4-one] | < 10
C[C@@H]1COCCN1c1cc(=O)n2c(n1)N(CC(=O)N1CCCO1)[C@H](C(F)(F)F)CC2 [Example 319, (S)-9-(2-Isoxazolidin-2-yl-2-oxoethyl)-2-((R)-3-methyl-morpholin-4-yl)-8-trifluoromethyl-6,7,8,9-tetrahydropyrimido-[1,2-a]pyrimidin-4-one] | < 10
CC1CN(c2cc(=O)n3c(n2)N(CC(=O)C(C)C)[C@H](C(F)(F)F)CC3)CCO1 (stereo partly drawn) [Example 320, (S)-2-(2-Methyl-morpholin-4-yl)-9-(3-methyl-2-oxobutyl)-8-trifluoromethyl-6,7,8,9-tetrahydropyrimido-[1,2-a]pyrimidin-4-one] | 10 to 100
C[C@H]1COCCN1c1nc2n(c(=O)c1F)CC[C@@H](C(F)(F)F)N2CC(=O)C1CC1 [Example 321, (S)-9-(2-Cyclopropyl-2-oxoethyl)-3-fluoro-2-((S)-3-methyl-morpholin-4-yl)-8-trifluoromethyl-6,7,8,9-tetrahydropyrimido-[1,2-a]pyrimidin-4-one] | 10 to 100
CC(=O)CN1c2nc(N3CCOC[C@H]3C)cc(=O)n2CC[C@@]1(C)C(F)(F)F [Example 327, (S)-8-Methyl-2-((R)-3-methylmorpholin-4-yl)-9-(2-oxopropyl)-8-trifluoromethyl-6,7,8,9-tetrahydropyrimido-[1,2-a]pyrimidin-4-one] | < 10
C[C@@H]1COCCN1c1cc(=O)n2c(n1)N(CC(=O)N1CC3(CCO3)C1)[C@H](C(F)(F)F)CC2 [Example 330, (S)-2-((R)-3-Methyl-morpholin-4-yl)-9-[2-(1-oxa-6-aza-spiro[3.3]hept-6-yl)-2-oxoethyl]-8-trifluoromethyl-6,7,8,9-tetrahydropyrimido-[1,2-a]pyrimidin-4-one] | 10 to 100
C[C@@H]1COCCN1c1nc2n(c(=O)c1F)CC[C@@H](C(F)(F)F)N2CC(=O)N1CC2(CCO2)C1 [Example 333, (S)-3-Fluoro-2-((R)-3-methylmorpholin-4-yl)-9-[2-(1-oxa-6-aza-spiro[3.3]hept-6-yl)-2-oxoethyl]-8-trifluoromethyl-6,7,8,9-tetrahydropyrimido-[1,2-a]pyrimidin-4-one] | < 10
